Data set [1] concerns rats subjected to tMCAo. Description: Intranasal Pen1-XBIR3 prior to tMCAo in rats; immunohistochemistry counts of neurons and processes in the penumbra. The data set is classed as in vivo, rat. Here is the method: Brains were analyzed for expression of activated caspase-6, NF-L, MAP-2, and NeuN at 12 hpr and 24 hpr. […] Therefore, caspase-9 inhibition using this delivery technique reduced caspase-6 activity. […] (Coleman, M., Nat Rev Neurosci 6 (11), 889-898 (2005)). […] Unlike axon density, dendrite levels are unaffected at 12 and 24 hpr (FIG. 4D), which can indicate a slower time-course for dendritic degeneration or a different mechanism of degeneration.
Mouse & Rat Stroke Models. Caspase-6 null (C6^−/−) mice (Jackson Laboratories)^48,49 on C57/B16 background were bred with wild-type C57/B16 mice to generate C6^+/− heterozygotes, hets were bred to generate C6^−/− and wild-type littermates for studies. 2-3 month old male C6^−/− and wild-type littermate mice (23-30 g) as well as adult Wistar male rats 250-300 g (Taconic Laboratories) were subjected to transient middle cerebral artery occlusion (tMCAo) as previously published. (Connolly, et al., Neurosurgery 38 (3), 523-531; discussion 532 (1996); Komotar, et al., Nat Protoc 2 (10), 2345-2347 (2007)). Brains were harvested and processed for western blotting or immunohistochemistry as described below. For mouse neurofunctional analysis, a 28 point neurological functional exam was performed as previously described. (Clark, et al., Neurol Res 19 (6), 641-648 (1997)). Additionally, single mice were placed in a fresh cage at each time point (Pre-stroke, 24 hr reperfusion, 7 days reperfusion) short videos (3 min at each time point) were recorded of each mouse's representative spontaneous activity to illustrate motor deficits in the mouse stroke model.
(§1) Intranasal Delivery of Pen1-XBIR3. While under isofluorane anesthesia and lying on their backs, Pen1-XBIR3 (36.8 μM) was delivered to rats by administering 6 μl drops to alternating nares every two minutes for 20 minutes (60 μl total delivered). (Thorne, et al., Neuroscience 127 (2), 481-496 (2004)). Intranasal treatment was done prior to induction of stroke. Saline was used as a negative control. Brains were harvested for immunohistochemistry or western blotting.
Immunohistochemistry (IHC), Cell Process Quantification, and Statistical Analysis. Rats and mice were euthanized, perfused with heparin followed by fixation with 4% paraform-aldehyde. Sections were blocked for 1 hr with 10% normal goat serum/1% BSA, incubated with primary antibody overnight at 4° C., washed with PBS-Triton-X100 (0.1%), incubated with the species appropriate Alexa Fluor-conjugated secondary antibody (Invitrogen) for 2 hr at RT. Slides were also stained with Hoechst 33342 for 15 min at RT (1 μg/ml, Invitrogen) or with NeuroTrace fluorescent Nissl stain (1:300, Invitrogen) for 30 min to stain for nuclei. Human samples were additionally treated with Sudan Black (1% in 70% EtOH) for 5 min at RT and washed with 3 changes of PBS (3 min each). For detection of fluorescent staining, sections were imaged with an upright Nikon fluorescent microscope using a SPOT digital camera and with a Perkin-Elmer Spinning Disc Confocal Imaging System. Quantification of neurons and axons was accomplished using the Cell Counter plug-in for ImageJ (NIH). For quantification in the rat brain, 20x magnification images were acquired from the dorsal motor cortex and the […] somatosensory cortex forelimb region; both regions are contained are within the infarct penumbra (FIG. 1A). Single blind counts of processes or neurons were made in both regions of interest and then pooled for each individual animal. Three animals were used per cohort. For mouse brains, 20× magnification images were taken in the S1 somato-sensory cortex forelimb region and similar counts were made as described below. Counts were made for NF-L/MAP-2 positive processes and NeuN positive cell bodies. Comparisons between groups used the student's t test, p-value: 0.05.

Data set [2] is described as follows: Intranasal delivery of Pen1-XBIR3 to rat CNS; western blot (anti-HIS) of coronal brain slices. Type of data set: in vivo. To be noted: intranasal 60 μl, 1 hr after delivery. Here is the method:
The following experiment was performed to ascertain if the Pen1-XBIR3 could also bypass the blood brain barrier via another delivery technique. […] (Dhuria, et al., J Pharm Sci 99 (4), 1654-1673 (2010); Liu, et al., J Stroke Cerebrovasc Dis 13 (1), 16-23 (2004); Liu, et al., J Neurol Sci 187 (1-2), 91-97 (2001)). This delivery method takes advantage of the olfactory pathway to bypass the blood brain barrier, however until now, proteins and compounds delivered via this method in rodent models have targeted extracellular targets, such as cell surface receptors. Since caspases, which are intracellular proteins, are targeted in this experiment, the cargo needed to be delivered intracellularly. […] Pent-XBIR3 was delivered intranasally to rats, after which brains were sliced coronally, and the presence of XBIR3 in the CNS determined by western blotting (FIG. 4A).
as §1

In data set [3] the test system is rats subjected to tMCAo. Briefly: Ischemic infarct volume (H&E) after intranasal Pen1-XBIR3 and tMCAo. The data set is classed as in vivo, rat. The conditions noted are these: 24 hpr, n=3. The procedure: as §1
The subject of data set [4] is rats subjected to tMCAo. Briefly: 24-point neurofunctional scale after 2 hr tMCAo, monitored for 21 days. The data set is classed as in vivo, rat. The procedure:
The efficacy of Pent-XBIR3 to prevent sensory-motor disability caused by stroke was tested by giving rats either a prophylatic (pre-occlusion) or therapeutic (4 hours post reperfusion) intranasal bolus of vehicle or Pent-XBIR3 (prepared and administerd as described in section 6.8, below). Rodents were assayed with a 24-point neurofunctional scale starting at 1 day post-ischemia with testing every other day for 3 weeks after the ischemic event.
as §1

Take “Pen1-XBIR3: BIR3 domain from XIAP, a specific caspase-9 inhibitor, disulfide-linked to Penetratin1 cell transduction peptide (SEQ ID NO: 10)”: the “MAP-2 positive processes (dendrites)” value is reported as 162.0±19.22 in the data set with rats subjected to tMCAo [1] (12 hpr, n=3) and 138.3±6.766 in the data set on rats subjected to tMCAo [1] (24 hpr, n=3). Also, the NF-L positive axons in the data set on rats subjected to tMCAo [1] (12 hpr, n=3) is 179.7±14.89. In addition, the NeuN positive cells was 477.3±28.95 with rats subjected to tMCAo [1] (12 hpr, n=3); 453.7±25.44 with rats subjected to tMCAo [1] (24 hpr, n=3); “significant protection against neuron loss” in the data set on rats subjected to tMCAo [1] (24 hpr, n=3, listed as Pent-XBIR3). Besides, the “presence of XBIR3 in brain slices (anterior to posterior)” value is “delivered to all slices of the brain” in data set [2] and “throughout the rat CNS” in data set [2] (listed as Pent-XBIR3). Also, the ischemic infarct volume result in the data set on rats subjected to tMCAo [3] is given as “reduces ischemic infarct volume”. Moreover, the “neurofunctional score (stroke related disability)” value was “less stroke related disability” in the data set on rats subjected to tMCAo [4] (prophylactic (pre-occlusion) intranasal bolus); “functional recovery up to 21 d” in the data set with rats subjected to tMCAo [4] (therapeutic (4 hours post reperfusion) intranasal bolus); “less stroke related disability” in the data set on rats subjected to tMCAo [4] (therapeutic (4 hours post reperfusion) intranasal bolus, listed as Pent-XBIR3).

Source of the values: patent US20200164026A1, “Intranasal Delivery of Cell Permeant Therapeutics” (The Trustees of Columbia University in the City of New York, priority 2010, published 2020).
